Consider 15 compounds from patent publication US20240409585A1, “MACROCYCLIC IMMUNOMODULATORS” (priority 2021, published 2024).

Bridge positions count the residues as written; N and C are the ends. Square brackets hold non-standard residues; d marks the D form. Peptide text beside a SMILES is read from it. * marks the point of attachment. ξ: configuration not given here. Phe(4-COOH) = N[C@@H](Cc1ccc(C(=O)O)cc1)C(=O)O; Bip = N[C@@H](Cc1ccc(-c2ccccc2)cc1)C(=O)O; Phe(3-Me) = Cc1cccc(C[C@H](N)C(=O)O)c1; Val(3-OH) = CC(C)(O)[C@H](N)C(=O)O; aIle = CC[C@@H](C)[C@H](N)C(=O)O; 4Pal = N[C@@H](Cc1ccncc1)C(=O)O; 3Thi = N[C@@H](Cc1ccsc1)C(=O)O; Cha = N[C@@H](CC1CCCCC1)C(=O)O; Cit = NC(=O)NCCC[C@H](N)C(=O)O; Ile(3ξ) = CCC(C)[C@H](N)C(=O)O; Thr(3ξ) = CC(O)[C@H](N)C(=O)O; Dap(Me) = CNC[C@H](N)C(=O)O; hSer = N[C@@H](CCO)C(=O)O; Carboxymethyl = O=C(O)C*; NMeA = CN[C@@H](C)C(=O)O; Dab = NCC[C@H](N)C(=O)O; Dap = NC[C@H](N)C(=O)O; NH(CH2)5NH2 = NCCCCCN*; ξV = CC(C)C(N)C(=O)O

The target in the test is T1, PE-labeled human PD-L1-Ig binding to Jurkat cell line over-expressing human PD-1 (Jurkat-PD-1) (Homo sapiens, UniProt Q15116).
T1 construct: expressed in transfected cells; host or cells: Jurkat
T1 sequence (Q15116 25-288): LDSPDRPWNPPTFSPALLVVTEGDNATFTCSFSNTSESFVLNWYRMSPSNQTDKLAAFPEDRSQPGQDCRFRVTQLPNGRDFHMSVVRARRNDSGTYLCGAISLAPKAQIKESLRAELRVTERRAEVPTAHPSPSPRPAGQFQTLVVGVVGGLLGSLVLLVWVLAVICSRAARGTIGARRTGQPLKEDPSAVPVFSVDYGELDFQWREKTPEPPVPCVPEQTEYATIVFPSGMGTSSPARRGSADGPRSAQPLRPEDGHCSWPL
Put plainly: Jurkat-PD-1 Cell Binding High-Content Screening Assay (CBA): Method 1. The following applies: Jurkat-hPD-1 cells, PE-labeled PD-L1-Ig 20 nM final; read-out: Jurkat HPDL1 PD1 IC50 (uM) (Method 1).

Broadly, the IC50 is the point on the concentration scale where inhibition reaches its midpoint.

Take `CC(C)C[C@H]1NC(=O)[C@H](C)N(C)C(=O)[C@H](Cc2ccc(OCC(=O)O)cc2)NC(=O)[C@H](Cc2ccc(-c3ccccc3)cc2)NC(=O)[C@H](Cc2ccc(C(=O)O)cc2)NC(=O)[C@H](Cc2c[nH]c3ccccc23)NC(=O)[C@H](CC(=O)O)NC(=O)[C@H](Cc2ccc(OCC(=O)O)cc2)NC(=O)[C@H](Cc2ccsc2)NC(=O)CSC[C@@H](C(=O)N[C@@H](CCN)C(N)=O)NC(=O)[C@H](CO)NC(=O)[C@H](C(C)(C)O)NC(=O)[C@H](CC2CCCCC2)NC(=O)[C@H](CC(N)=O)NC1=O` [Compound 2131] ({CH2CO}-[3Thi]Y(Carboxymethyl)DW[Phe(4-COOH)][Bip]Y(Carboxymethyl)[NMeA][dL]N[Cha][Val(3-OH)]SC[Dab]-NH2; thioether N-14): the IC50 was 0.07 µM.

Turning to `CC(C)C[C@H]1NC(=O)[C@H](C)N(C)C(=O)[C@H](C(C)C)NC(=O)[C@H](Cc2ccc(-c3ccccc3)cc2)NC(=O)[C@H](C(C)C)NC(=O)[C@H](Cc2c[nH]c3ccccc23)NC(=O)[C@H](CC(N)=O)NC(=O)[C@H](Cc2ccc(OCC(=O)O)cc2)NC(=O)[C@H](Cc2ccccc2)NC(=O)CSC[C@@H](C(=O)N[C@@H](C)C(=O)NCCCCCN)NC(=O)[C@H](CO)NC(=O)C(C(C)C)NC(=O)[C@H](CC2CCCCC2)NC(=O)[C@H](CC(N)=O)NC1=O` (stereo partly drawn) [Compound 2240] ({CH2CO}-FY(Carboxymethyl)NWV[Bip]V[NMeA][dL]N[Cha][ξV]SCA-{NH(CH2)5NH2}; thioether N-14), the IC50 amounted to 0.04 µM.

As for `CC(C)C[C@@H]1NC(=O)[C@H](Cc2c[nH]c3ccccc23)NC(=O)[C@H](CC(=O)O)NC(=O)[C@H](Cc2ccc(C(=O)O)cc2)NC(=O)[C@H](Cc2ccc(OCC(=O)O)cc2)NC(=O)CSC[C@@H](C(=O)N[C@@H](CC(N)=O)C(N)=O)NC(=O)[C@H](CO)NC(=O)[C@H](C(C)(C)O)NC(=O)[C@H](CC2CCCCC2)NC(=O)[C@H](CCN)NC(=O)[C@@H](CC(C)C)NC(=O)[C@H](C)N(C)C(=O)[C@H](C(C)C)NC(=O)[C@H](Cc2ccc(-c3ccccc3)cc2)NC1=O` [Compound 1915] ({CH2CO}-Y(Carboxymethyl)[Phe(4-COOH)]DWL[Bip]V[NMeA][dL][Dab][Cha][Val(3-OH)]SCN-NH2; thioether N-14), the IC50 turned out to be 0.01 µM.

On to `CCC(C)[C@@H]1NC(=O)[C@H](Cc2ccc(-c3ccccc3)cc2)NC(=O)[C@H](C(C)C)NC(=O)[C@H](Cc2c[nH]c3ccccc23)NC(=O)[C@H](CC(=O)O)NC(=O)[C@H](Cc2ccc(OCC(=O)O)cc2)NC(=O)[C@H](CNC)NC(=O)CSC[C@@H](C(=O)N[C@@H](CC(N)=O)C(N)=O)NC(=O)[C@H](C(C)O)NC(=O)[C@H](C(C)C)NC(=O)[C@H](CC2CCCCC2)NC(=O)[C@H](CN)NC(=O)[C@@H](CC(C)C)NC(=O)[C@H](C)N(C)C1=O` (stereo partly drawn) [Compound 2078] ({CH2CO}-[Dap(Me)]Y(Carboxymethyl)DWV[Bip][Ile(3ξ)][NMeA][dL][Dap][Cha]V[Thr(3ξ)]CN-NH2; thioether N-14), for which the IC50 came to 0.02 µM.

For `CC(C)C[C@@H]1NC(=O)[C@H](Cc2c[nH]c3ccccc23)NC(=O)[C@H](CC(=O)O)NC(=O)[C@H](Cc2ccc(O)cc2)NC(=O)[C@H](Cc2ccccc2)NC(=O)CSC[C@@H](C(=O)NCC(N)=O)NC(=O)[C@H](CO)NC(=O)[C@H](C(C)C)NC(=O)[C@H](CC(C)C)NC(=O)[C@H](CC(N)=O)NC(=O)[C@H](CCO)NC(=O)[C@H](C)N(C)C(=O)[C@H](C(C)C)NC(=O)[C@H](Cc2ccc(-c3ccccc3)cc2)NC1=O` [Compound 1814] ({CH2CO}-FYDWL[Bip]V[NMeA][hSer]NLVSCG-NH2; thioether N-14), the IC50 turned out to be 0.3 µM.

Regarding `CC[C@H](C)[C@@H]1NC(=O)[C@H](Cc2ccc(-c3ccccc3)cc2)NC(=O)[C@H](C(C)C)NC(=O)[C@H](Cc2cccc(C)c2)NC(=O)[C@H](CC(=O)O)NC(=O)[C@H](Cc2ccc(O)cc2)NC(=O)[C@H](CC(N)=O)NC(=O)CSC[C@@H](C(=O)N[C@H](C)C(N)=O)NC(=O)[C@H]([C@@H](C)O)NC(=O)[C@H](C(C)(C)O)NC(=O)[C@H](CC(C)C)NC(=O)[C@H](CCN)NC(=O)[C@@H](CC(C)C)NC(=O)[C@H](C)N(C)C1=O` [Compound 1685] ({CH2CO}-NYD[Phe(3-Me)]V[Bip]I[NMeA][dL][Dab]L[Val(3-OH)]TC[dA]-NH2; thioether N-14), the IC50 was 0.1 µM.

`CC(C)C[C@@H]1NC(=O)[C@H](CCN)NC(=O)[C@@H](CC(C)C)NC(=O)[C@H](C)N(C)C(=O)[C@H](CCCNC(=N)N)NC(=O)[C@H](Cc2ccc(-c3ccccc3)cc2)NC(=O)[C@H](C(C)C)NC(=O)[C@H](Cc2c[nH]c3ccccc23)NC(=O)[C@H](CC(=O)O)NC(=O)[C@H](Cc2cnc[nH]2)NC(=O)[C@H](CC(N)=O)NC(=O)CSC[C@@H](C(=O)N[C@@H](C)C(N)=O)NC(=O)[C@H]([C@@H](C)O)NC(=O)[C@H](C(C)C)NC1=O` [Compound 1137] ({CH2CO}-NHDWV[Bip]R[NMeA][dL][Dab]LVTCA-NH2; thioether N-14): the IC50 came out at 0.27 µM.

As to `CC(C)C[C@@H]1NC(=O)[C@H](Cc2c[nH]c3ccccc23)NC(=O)[C@H](CC(=O)O)NC(=O)[C@H](Cc2ccc(C(=O)O)cc2)NC(=O)[C@H](Cc2ccccc2)NC(=O)CSC[C@@H](C(=O)N[C@@H](C)C(N)=O)NC(=O)[C@H](CO)NC(=O)[C@H](C(C)C)NC(=O)[C@H](CC(C)C)NC(=O)[C@H](CC(N)=O)NC(=O)[C@@H](C)NC(=O)[C@H](C)N(C)C(=O)[C@H](C(C)C)NC(=O)[C@H](Cc2ccc(-c3ccccc3)cc2)NC1=O` [Compound 1731] ({CH2CO}-F[Phe(4-COOH)]DWL[Bip]V[NMeA][dA]NLVSCA-NH2; thioether N-14), the IC50 came out at 0.01 µM.

As to `CC(C)C[C@@H]1NC(=O)[C@H](Cc2c[nH]c3ccccc23)NC(=O)[C@H](CC(=O)O)NC(=O)[C@H](Cc2ccc(O)cc2)NC(=O)[C@H](Cc2ccccc2)NC(=O)CSC[C@@H](C(=O)N[C@@H](C)C(N)=O)NC(=O)[C@H](CO)NC(=O)[C@H](C(C)C)NC(=O)[C@H](CC(C)C)NC(=O)[C@H](CCCCN)NC(=O)[C@@H](C)NC(=O)[C@H](C)N(C)C(=O)[C@H](C(C)C)NC(=O)[C@H](Cc2ccc(-c3ccccc3)cc2)NC1=O` [Compound 1748] ({CH2CO}-FYDWL[Bip]V[NMeA][dA]KLVSCA-NH2; thioether N-14), the IC50 came to 0.02 µM.

As to `CC(C)C[C@@H]1NC(=O)[C@H](Cc2c[nH]c3ccccc23)NC(=O)[C@H](CC(=O)O)NC(=O)[C@H](Cc2ccc(O)cc2)NC(=O)[C@H](Cc2ccccc2)NC(=O)CSC[C@@H](C(=O)N[C@@H](C)C(N)=O)NC(=O)[C@H]([C@@H](C)O)NC(=O)[C@H](C(C)C)NC(=O)[C@H](CC(C)C)NC(=O)[C@H](CC(N)=O)NC(=O)[C@@H](CC(C)C)NC(=O)[C@H](C)N(C)C(=O)[C@H](C(C)C)NC(=O)[C@H](Cc2ccc(-c3ccccc3)cc2)NC1=O` [Compound 1467] ({CH2CO}-FYDWL[Bip]V[NMeA][dL]NLVTCA-NH2; thioether N-14), the IC50 stood at 0.02 µM.

With `CC(C)C[C@@H]1NC(=O)[C@H](CC(N)=O)NC(=O)[C@@H](CC(C)C)NC(=O)[C@H](C)N(C)C(=O)[C@H](CCCNC(N)=O)NC(=O)[C@H](Cc2ccc(-c3ccccc3)cc2)NC(=O)[C@H](C(C)C)NC(=O)[C@H](Cc2c[nH]c3ccccc23)NC(=O)[C@H](CC(=O)O)NC(=O)[C@H](Cc2ccc(O)cc2)NC(=O)[C@H](Cc2ccccc2)NC(=O)CSC[C@@H](C(=O)N[C@@H](C)C(=O)N[C@@H](CCN)C(=O)O)NC(=O)[C@H](CO)NC(=O)[C@H](C(C)C)NC1=O` [Compound 2000] ({CH2CO}-FYDWV[Bip][Cit][NMeA][dL]NLVSCA[Dab]-OH; thioether N-14), the IC50 stood at 0.02 µM.

As for `Cc1cccc(C[C@@H]2NC(=O)[C@H](CC(=O)O)NC(=O)[C@H](Cc3ccncc3)NC(=O)[C@H](Cc3ccc(OCC(=O)O)cc3)NC(=O)CSC[C@@H](C(=O)N[C@@H](CC(=O)O)C(N)=O)NC(=O)[C@H](CO)NC(=O)[C@H](C(C)C)NC(=O)[C@H](CC(C)C)NC(=O)[C@H](CC(N)=O)NC(=O)[C@@H](CC(C)C)NC(=O)[C@H](C)N(C)C(=O)[C@H](C(C)C)NC(=O)[C@H](Cc3ccc(-c4ccccc4)cc3)NC(=O)[C@H](CC(C)C)NC2=O)c1` [Compound 1601] ({CH2CO}-Y(Carboxymethyl)[4Pal]D[Phe(3-Me)]L[Bip]V[NMeA][dL]NLVSCD-NH2; thioether N-14), the IC50 stood at 0.02 µM.

Turning to `CC(C)C[C@@H]1NC(=O)[C@H](Cc2c[nH]c3ccccc23)NC(=O)[C@H](CC(=O)O)NC(=O)[C@H](Cc2ccc(O)cc2)NC(=O)[C@H](Cc2ccccc2)NC(=O)CSC[C@@H](C(=O)N[C@@H](C)C(N)=O)NC(=O)[C@H]([C@@H](C)O)NC(=O)[C@H](CCCNC(=N)N)NC(=O)[C@H](CC(C)C)NC(=O)[C@H](CC(N)=O)NC(=O)[C@@H](C)NC(=O)[C@H](C)N(C)C(=O)[C@H](C(C)C)NC(=O)[C@H](Cc2ccc(-c3ccccc3)cc2)NC1=O` [Compound 1789] ({CH2CO}-FYDWL[Bip]V[NMeA][dA]NLRTCA-NH2; thioether N-14), the IC50 came to 0.12 µM.

In the case of `CCC(C)[C@@H]1NC(=O)[C@H](Cc2ccc(-c3ccccc3)cc2)NC(=O)[C@H](C(C)C)NC(=O)[C@H](Cc2c[nH]c3ccccc23)NC(=O)[C@H](CC(=O)O)NC(=O)[C@H](Cc2ccc(O)cc2)NC(=O)[C@H](CC(N)=O)NC(=O)CSC[C@@H](C(=O)N[C@@H](CC(N)=O)C(N)=O)NC(=O)[C@H](C(C)O)NC(=O)[C@H](C(C)C)NC(=O)[C@H](CC(C)C)NC(=O)[C@H](CCN)NC(=O)[C@@H](CC(C)C)NC(=O)[C@H](C)N(C)C1=O` (stereo partly drawn) [Compound 2069] ({CH2CO}-NYDWV[Bip][Ile(3ξ)][NMeA][dL][Dab]LV[Thr(3ξ)]CN-NH2; thioether N-14), the IC50 came to 0.1 µM.

Regarding `CC[C@@H](C)[C@@H]1NC(=O)[C@H](Cc2ccc(-c3ccccc3)cc2)NC(=O)[C@H](CC(C)C)NC(=O)[C@H](Cc2cccc(C)c2)NC(=O)[C@H](CC(=O)O)NC(=O)[C@H](Cc2ccncc2)NC(=O)[C@H](Cc2ccc(OCC(=O)O)cc2)NC(=O)CSC[C@@H](C(N)=O)NC(=O)[C@H](CO)NC(=O)[C@H](C(C)C)NC(=O)[C@H](CC(C)C)NC(=O)[C@H](CC(N)=O)NC(=O)[C@@H](CC(C)C)NC(=O)[C@H](C)N(C)C1=O` [Compound 1638] ({CH2CO}-Y(Carboxymethyl)[4Pal]D[Phe(3-Me)]L[Bip][aIle][NMeA][dL]NLVSC-NH2; thioether N-14), the IC50 stood at 0.07 µM.
